pIC50: −log10 of the molar value.
Columns and labels:
MT-2 cells = assay: Cytotoxicity in MT-2 cells (concentration to kill 50% of the cells); type: cell-based
Excerpt: (§1) PMPA (9-[(R)-2-(phosphonomethoxy)propyl]adenine) and PMPA carbonates were examined to determine their activity against HIV-1.

HIV-1(IIIB) = assay: Antiviral activity against HIV-1(IIIB) in MT-2 cells (tissue culture); type: cell-based; conditions: for SI - Selectivity Index(CC50/IC50): CC50/IC50, HIV-1, MT-2 cells; for pIC50: Human immunodeficiency virus 1, MT2, HIV-1(IIIB), MT-2 cells, read-out: IC50 (50% inhibitory concentration)
Excerpt: as §1

[1] = Chemical (solution) stability of PMPA carbonates; type: physicochemical; conditions: compared with preferred t 1/2 at pH 7.4 (> 2-12 hours) and at pH 2.0 (> 1, 10 or 100 hours)
Method: The solution stability of PMPA carbonates was studied at pH 7.4 at 37°C in 10 mM buffer (NaH2PO4 and Na2HPO4) with the total ionic strength adjusted to 0.15 M with KCl. The assays were performed by adding 200 µL of a PMPA carbonate stock solution (about 1 mg/mL in DMSO) to 10 mL of pre-equilibrated buffer at 37°C. Samples were removed at specific times points and analyzed by HPLC. The chemical t 1/2 is expressed in terms of the number of hours required to hydrolyze 50% of the carbonate at the specified pH.

[2] = Cytotoxicity in MT-2 cells (concentration to kill 50% of the cells); type: cell-based; conditions: human
Excerpt: as §1

Excerpt for physchem: as §1

Compound	CC50 (MT-2 cells)	SI - Selectivity Index(CC50/IC50) (HIV-1(IIIB))	pIC50 (HIV-1(IIIB))	t 1/2 (chemical stability) [1]	increased potency / activity compared to PMPA (HIV-1(IIIB); anti-HIV-1 activity relative to PMPA)	logP (physchem)	CC50 [2]
CCOC(=O)OCOP(=O)(CO[C@H](C)Cn1cnc2c(N)ncnc21)OCOC(=O)OCC [5a]	40000 nM	20000	8.70				
CC(C)COC(=O)OCOP(=O)(CO[C@H](C)Cn1cnc2c(N)ncnc21)OCOC(=O)OCC(C)C [5c]	30000 nM	30000	> 9.00				
C[C@H](Cn1cnc2c(N)ncnc21)OCP(=O)(OCOC(=O)OC(C)(C)C)OCOC(=O)OC(C)(C)C [5d]	10000 nM	50	6.70	less stable than these parameters	2.5 fold		
C[C@H](Cn1cnc2c(N)ncnc21)OCP(=O)(OCOC(=O)OCC(C)(C)C)OCOC(=O)OCC(C)(C)C [5e]	3000 nM	3000	> 9.00				
CC(C)OC(=O)OCOP(=O)(CO[C@H](C)Cn1cnc2c(N)ncnc21)OCOC(=O)OC(C)C [5f]	50000 nM	16600	8.52				
CCC(CC)OC(=O)OCOP(=O)(CO[C@H](C)Cn1cnc2c(N)ncnc21)OCOC(=O)OC(CC)CC [5g]	40000 nM	40000	> 9.00				
C[C@H](Cn1cnc2c(N)ncnc21)OCP(=O)(O)O [compound 2, 9-[(R)-2-(phosphonomethoxy)propyl]adenine, reference compound]		500	6.30			-2.5	250000 nM
